The numbers were not newly measured in patent publication US20250073182A1, “LOW DOSAGE GOSSYPOL CON[…] RODENTS” (priority 2023, published 2025), which cites them from elsewhere.

The subject of one data set is female rats. The conditions noted are these: female rats (Gadelha et al. 2014; Lin, et al., 1985).
The test system of data set [1] is ovarian follicles of female mice. The conditions noted are these: in vitro, all stages of development (Luz et al. 2018; Ding et al. 2021).
Where [2] appears, read: gossypol in cottonseed meal at 15 mg/kg per day for 4 weeks.
The mark [3] stands for this setting: low doses, after 4 weeks (Nadakavukaren et al. 1979).

Take `Cc1cc2c(C(C)C)c(O)c(O)c(C=O)c2c(O)c1-c1c(C)cc2c(C(C)C)c(O)c(O)c(C=O)c2c1O` (atropisomer, axis not shown) [gossypol]: the “epididymal and accessory sex glands weights” value in the data set on male rats (daily 30 mg/kg for 6 weeks or 7.5 and 15 mg/kg for 12 weeks (Chang et al. 1982)) is listed as “reduced”. Further, in the data set on male rats (setting [2]), the fertility result was “reduced” and the toxicity result is listed as “absent”. Further, the “effects at high doses in rats” value in the data set with male rats (high doses (Romualdo et al. 2002; Gadelha et al. 2014)) was “reduced food intake, anorexia, and hepatic toxicity”. In the data set on male rats (setting [3]), the offspring produced result was “no offspring were produced” and the spermatozoa with defects result is recorded as “over 50%”. Also, the pregnancy rates result in the data set with male rats (male rats given ≥10 mg/kg/d, bred to fertile females, as early as 6 weeks (Randel et al. 1992)) is reported as “significantly lower”. Further, the “fertility after withdrawal of treatment” value in the data set with male rats (rats (Chang et al. 1982)) is on record as “recovery in fertility”. The seminal vesicle weight result with male mice (20 or 40 mg/kg body weight, 3 weeks (Singh and Rath, 1990)) is “significant decrease”. The sperm counts result in the data set with male mice (two mouse strains, 10 and 20 mg/kg BW orally for 4 weeks (Hunt and Mittwoch 1984)) is listed as “reduced”. Also, the estrous cycle entry in the data set with female rats is recorded as “longer estrous cycle”. For the same compound, in data set [1], the “number of atretic follicles” value is recorded as “increased” and the “number of viable follicles” value is “significantly decreased”.
